Like-named read-outs stand apart in the source and are kept apart here. Where a SMILES comes first, the peptide text is derived from it.

Experimental findings from PMC4782163, “A Novel Pentapeptide Targeting Integrin β3-Subunit Inhibits Platelet Aggregation and Its Application in Rat for Thrombosis Prevention” (Frontiers in Pharmacology, 2016) are described below.

One data set deals with Kunming mice. As to the method:
Kunming mice (n = 6 for each group) were intravenously injected with different concentrations of P1Cm, ranging from 0.075 to 6 mmol/kg (10x IC90), or tirofiban ranging from 0.025 to 2 mmol/kg (10x IC90). Blood pressure and breath were monitored after injection, and the mesentery were observed under microscope after the animals were sacrificed. Mortality within the next 3 days was recorded.

Data set [1] concerns artery-vein shunt thrombus formation. Description: Artery-vein shunt thrombosis model. The format is in vivo, rat. As to the method:
Fifty male Wistar rats (250–300 g) were randomly divided into five groups: high-, middle-, and low-dose groups of P1Cm, a saline group, and a tirofiban group (n = 10 per group). The animals were treated with the same concentrations as in the previous thrombosis model, 0.15, 0.30, or 0.45 mmoL/kg of P1Cm, 0.15 mmoL/kg of tirofiban, or an equal volume of saline by tail vein injection after being anesthetized by an intraperitoneal injection of ketamine (100 mg/kg). The operation was carried out as previously reported (Sato et al., [1998]; Jing et al., [2011]). Briefly, the right carotid and left jugular veins were separated. An 8 cm silk thread was placed inside a polyethylene tube filled with heparin sodium solution (50 IU/mL). The right carotid and left jugular veins were connected with the tube. One end of the tube containing the thread was inserted into the left jugular vein, and the other end was inserted into the right carotid artery. Blood was allowed to flow from the right carotid artery to the left jugular vein through the polyethylene tube for 15 min. The tube was then removed, and the weight of the attached wet thrombus on the thread was measured immediately. The rats were sacrificed through an intravenous injection of air.

Data set [2] concerns carotid arterial thrombosis. Description: Ferric chloride-induced carotid arterial thrombosis model (CDFI, pathology). Particulars: 0.15 mmol/kg tail vein, Wistar rats, n = 6, mean ± SD. It is filed as in vivo, rat. As to the method:
Thirty male Wistar rats (250–300 g) were randomly divided into five groups: high-, middle-, and low-dose treated groups of P1Cm, a saline group, and a tirofiban group (n = 6 per group). The rats were operated on the right common carotid artery (Bird et al., [2008]). Briefly, the rat was first anesthetized by an intraperitoneal injection of ketamine (100 mg/kg). The fascia was bluntly dissected to expose the right common carotid artery immediately after a dosage of 0.15, 0.30, or 0.45 mmoL/kg of P1Cm, 0.15 mmoL/kg of tirofiban, or an equal volume of saline applied accordingly via tail vein injection. A 3 × 4 mm piece of filter paper saturated with ferric chloride (10% solution) was placed under the right carotid artery for 20 min and then removed. Thrombus size and blood flow were detected by color Doppler flow imaging (CDFI) (13 MHz phased-array transducer, LOGIQ S6 Color Doppler Ultrasonographer, GE, USA; Chua et al., [2012]). The animals were kept anesthetized during the CDFI measurements.
To obtain fresh samples immediately after measurement, the animals were sacrificed through an intravenous injection of air, and the injured carotid artery was collected for pathological examination. Carotid artery samples were fixed with 10% neutral buffered formalin and embedded in paraffin wax for routine histological analysis with hematoxylin and eosin staining. Morphometric analysis was carried out using a Leica Q500/W microscope (Leica Microsystems, Wetzlar, Germany). The antithrombosis effect was evaluated by calculating the percentage of carotid artery area covered by the thrombus (Hosokawa et al., [2011]).

The next data set relates to plasma coagulation. Description: Coagulation parameters in plasma (FIB, TT, PT, APTT).
Where [3] appears, read: dosage IC50 (P1Cm 0.075, tirofiban 0.025 mmol/kg), i.v., n = 6, within 3 days.
Where [4] appears, read: dosage IC90, i.v., n = 6, within 3 days.

Procedure for plasma coagulation: Plasma was collected after centrifugation at 1000 × g for 10 min at room temperature. […] The coagulation parameters, such as activated partial thromboplastin time (APTT), prothrombin time (PT), and thrombin time (TT; Chen et al., [2013]), were recorded, and each assay was performed in triplicate.

For `CCCCS(=O)(=O)N[C@@H](Cc1ccc(OCCCCC2CCNCC2)cc1)C(=O)O` [Tirofiban], the Mortality in the data set with Kunming mice (dosage 10x IC90 (P1Cm 6, tirofiban 2 mmol/kg), i.v., n = 6, within 3 days) is 2/6. The compound further returned a Mortality in the data set with Kunming mice (setting [3]) of 0. The Mortality in the data set with Kunming mice (setting [4]) is given as 0/6. The “EMW (thrombosis wet weight)” value in data set [1] (0.15 mmol/kg tail vein, Wistar rats, 15 min shunt, n = 10, mean ± SD) was 27.51 ± 4.03 mg. Moreover, the “Decrease of thrombus weight vs saline group” value in data set [1] (0.15 (mM in the source), rats) is listed as 39.92%. In data set [2], the “PSFV (peak systolic flow velocity)” value was 84.2 ± 3.50 cm/s, the “Thrombosis SIZE/area” value is 0.007 ± 0.001^* cm^2 and the “VSR (vascular stenosis rate)” value is 28.25 ± 5.83 %. Also, the “Effect on coagulation parameters” value in the data set with plasma coagulation (0.15 mM, P < 0.05) is “apparently inhibited the coagulation and affected the parameters”. In the data set with plasma coagulation (tirofiban group (0.15 mM), 5 min 37°C), this compound returned an FIB of 4.23 ± 0.71 g/L.

Take `CC[C@H](C)[C@H](N)C(=O)N[C@@H](CCCNC(=N)N)C(=O)N[C@H](C(=O)N1CCC[C@H]1C(=O)N[C@@H](CCCCN)C(=O)O)[C@@H](C)O` [Peptide P1Cm] (H-IRTPK-OH): the Mortality with Kunming mice (setting [3]) is 0; in the data set on Kunming mice (setting [4]), 0; in the data set on Kunming mice (mouse, in vivo, iv) it was 0.
